Test results as given in patent US6348485B1, “Method for treating or preventing sleep disorders” (Takeda Chemical Industries, Ltd., priority 1998, dated 2002).

How the values were obtained:
[1] = system: crab-eating macaques (Macaca fascicularis); test: Sleep latencies at nighttime in monkeys (EEG/EMG/EOG sleep stage classification); format: in vivo; conditions: vs control
Procedure: (§1) Six female crab-eating macaques (Macaca fascicularis), weighing 2.8-4.2 kg, were housed individually in a room maintained at 24±1° C. with a 12-h light/dark cycle (light on 6:00). Under sodium pentobarbital anesthesia, stainless steel screw and bipolar electrodes for electroencephalogram (EEG), electromyogram (EMG) and electro-oculogram (EOG) were implanted. After recovery from surgery, the monkeys were well habituated to the recording chamber (60×60×80 cm) located in a sound-proof and electrically shielded room. Compound A (0.003 mg/kg) and/or triazolam (0.03 mg/kg) were given orally 17:50-17:55. Compound A and triazolam were suspended in 0.5% methylcellulose solution. The control monkey was given 0.5% MC. The behaviors of subjects were observed using a video camera with infrared light sensitivity. EEG, EMG and EOG were recorded on a MO disk with an electroencephalograph (EE5518, NEC Medical Systems, Tokyo, Japan). All recordings were carried out from 18:00 until 6:00. The EEG power spectral analysis was also performed continuously by means of a fast Fourier transform (FFT) system equipped with a personal computer. […] Latencies of each sleep stage (the time until the first appearance of each sleep stage) were determined from 18:00. The occurrence of each sleep stage at nighttime and other sleep parameters were also determined.

[2] = system: crab-eating macaques (Macaca fascicularis); test: Observation of general behavior of monkeys (video camera); format: in vivo; conditions: triazolam 0.03 mg/kg p.o. alone
Procedure: as §1

SMILES: CCC(=O)NCC[C@@H]1CCc2ccc3c(c21)CCO3 [compound A, (S)-N-[2-(1,6,7,8-tetrahydro-2H-indeno[5,4-b]furan-8-yl)ethyl]propionamide]
- effect on the latency of any sleep stages ([1]; compound A 0.003 mg/kg p.o. alone): no significant effects

SMILES: Cc1nnc2n1-c1ccc(Cl)cc1C(c1ccccc1Cl)=NC2 [triazolam, 8-chloro-6-(2-chlorophenyl)-1-methyl-4H-[1,2,4]triazolo[4,3-a][1,4]benzodiazepine]
- effect on the sleep latencies ([1]; triazolam 0.03 mg/kg p.o. alone): no significant effects
- ataxia and sedation [2]: did not cause
- effect on general behavior [2]: did not affect
